Results on eleven compounds are retold here after ChEMBL document CHEMBL1201862, “PubChem BioAssay data set” (2004).

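The compound was tested at five concentrations on cells cultured in 96-well plates, with a 48-hour exposure period. Abbreviation: GI50, concentration required for 50% inhibition of growth.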 Calls of active or inactive are those of the source. Cut-off read from the data, not from the text of the source: active = GI50 up to about 1.1 µM and inactive = higher.

What all share (test): NCI tumour cell line growth inhibition, 48 h
For assay [1], the system named is BT-549.
Assay [2] deals with CAKI-1.
For assay [3], the system named is DU-145.
Assay [4] deals with HOP-92.
For assay [5], the system named is HT-29.
For assay [6], the system named is Hs-578T.
Assay [7] has as its system K562.
In assay [8] the test system is MCF7.
For assay [9], the system named is MDA-MB-231.
In assay [10] the test system is MDA-MB-435.
Assay [11] relates to MDA-N.
For assay [12], the system named is NCI/ADR-RES.
The test system of assay [13] is RXF 393.
The subject of assay [14] is SK-OV-3.
For assay [15], the system named is SR.
In assay [16] the test system is T47D.
The test system of assay [17] is TK-10.
Assay [18] relates to KM12.
Assay [19] deals with PC-3.

Turning to `COc1ccc(-c2cc(=O)c3c(OC)c(O)c(OC)cc3o2)cc1`, the GI50 in assay [1] was 55.3 µM (inactive); in assay [2], 85.5 µM (inactive); in assay [3] it was 49.3 µM (inactive); in [4], 20.9 µM (inactive); in assay [5] it was 35.5 µM (inactive); in [6] it was 40.4 µM (inactive). For the same compound, the GI50 in assay [7] is 52.4 µM (inactive); in assay [8], 42.7 µM (inactive); in [9], 23.6 µM (inactive); in assay [10], 42.4 µM (inactive); in [11], 47.3 µM (inactive); in assay [12] it was 29.1 µM (inactive). Besides, the GI50 in [13] is 36.6 µM (inactive); in [14], 50.7 µM (inactive); in assay [15], 73.8 µM (inactive); in assay [16] it was 23.1 µM (inactive); in assay [17] it was 28.3 µM (inactive).
`O=C1C=C(Br)c2c(-c3ccccc3)oc3cccc1c23`: the GI50 in assay [1] is > 100 µM (inactive); in [2] it was > 76.9 µM (inactive); in assay [3], 31.6 µM (inactive); in assay [4], 25.4 µM (inactive); in assay [5], > 63.4 µM (inactive); in assay [6], 29.3 µM (inactive). Besides, the GI50 was > 50.9 µM (inactive) in [7]; > 53 µM (inactive) in assay [18]; 2.62 µM (inactive) in assay [8]; 26.4 µM (inactive) in [9]; 17.1 µM (inactive) in [10]; 18.4 µM (inactive) in assay [11]. Further, the GI50 in assay [12] was 48 µM (inactive); in assay [19], > 100 µM (inactive); in assay [13], 23.6 µM (inactive); in [14] it was 54.1 µM (inactive); in [16], 6.21 µM (inactive); in assay [17], 38.1 µM (inactive).
On to `CN(COC(=O)C(C)(C)C)c1nc(N(C)COC(=O)C(C)(C)C)nc(N(C)COC(=O)C(C)(C)C)n1`, for which the GI50 is 34.4 µM (inactive) in [1]; 36.7 µM (inactive) in assay [2]; 22.4 µM (inactive) in [3]; 34 µM (inactive) in [5]; > 100 µM (inactive) in assay [6]; 24 µM (inactive) in assay [7]. Further, the GI50 in assay [18] is > 100 µM (inactive); in [8], 33.8 µM (inactive); in assay [9], 16.4 µM (inactive); in [11], 25.7 µM (inactive); in assay [12], 44.3 µM (inactive); in [19], 77.8 µM (inactive). Also, the GI50 was 21 µM (inactive) in assay [13]; > 100 µM (inactive) in [14]; 29.1 µM (inactive) in [15]; 56.6 µM (inactive) in [16]; > 100 µM (inactive) in [17].
On to `CC1=C2c3c(C)ccc4ccc(C)c(c34)C2(O)C(C)C1=O` (stereo unspecified), for which the GI50 is 21 µM (inactive) in assay [1]; 52.1 µM (inactive) in [2]; > 100 µM (inactive) in assay [3]; 44.5 µM (inactive) in assay [4]; > 100 µM (inactive) in assay [5]; 35.1 µM (inactive) in [6]. Further, the GI50 in assay [7] was 49.5 µM (inactive); in assay [18], 41.3 µM (inactive); in assay [8], 68.5 µM (inactive); in assay [9], 89.1 µM (inactive); in [10], 52.1 µM (inactive); in [11], 54.1 µM (inactive). The GI50 in assay [12] is 15.2 µM (inactive); in assay [19], 32.7 µM (inactive); in [14], 52.7 µM (inactive); in assay [15], > 100 µM (inactive); in assay [16] it was 29.3 µM (inactive); in assay [17], > 100 µM (inactive).
For the compound `Cc1ncc([N+](=O)[O-])n1CC[N+](C)([O-])CCCCn1ccnc1[N+](=O)[O-]` (stereo unspecified), the GI50 in assay [1], in assay [2], in [3], in assay [5], in assay [6] and in assay [7] was > 100 µM (inactive) throughout. Further, the GI50 in assay [18], in assay [8], in assay [9], in [10], in assay [11] and in assay [12] was > 100 µM (inactive) throughout. Also, the GI50 in [19], in [13], in [14], in [15], in [16] and in [17] was > 100 µM (inactive) in each case.
For `Cc1cc(S(=O)(=O)Nc2nncn2-c2ccc(Cl)cc2)c(S)cc1Cl`, the GI50 in [1], in [2], in assay [3], in [5], in assay [6] and in assay [7] was > 10 µM (inactive) each time. Also, the GI50 in [18], in [8], in assay [9], in assay [10], in [11] and in assay [12] was > 10 µM (inactive) throughout. Moreover, the GI50 in assay [19], in assay [13], in assay [14], in assay [16] and in assay [17] was > 10 µM (inactive) each time.
Consider `CCOC(=O)c1nc2ccc(C(F)(F)F)cc2nc1NCc1ccc(Cl)c(Cl)c1`, for which the GI50 is 37 µM (inactive) in assay [1]; 24.9 µM (inactive) in assay [2]; 14.6 µM (inactive) in assay [4]; 29.1 µM (inactive) in [5]; 20.8 µM (inactive) in assay [6]; 80 µM (inactive) in [7]. Besides, the GI50 in [18] is 28.7 µM (inactive); in assay [8] it was 30.4 µM (inactive); in assay [9], 30.2 µM (inactive); in [10], 23.6 µM (inactive); in assay [11], 57.4 µM (inactive); in [12], 47.1 µM (inactive). Moreover, the GI50 in assay [19] is 22.8 µM (inactive); in [13], 24.4 µM (inactive); in assay [14], 35.2 µM (inactive); in assay [15], 37.9 µM (inactive); in [16], 44.5 µM (inactive); in [17], 34.2 µM (inactive).
As to `O=C1c2sc(-c3ccc(F)cc3)cc2-n2cccc21`, the GI50 was 34 µM (inactive) in assay [1]; 17.1 µM (inactive) in [2]; 24.6 µM (inactive) in [3]; 25.2 µM (inactive) in assay [5]; 19.7 µM (inactive) in [6]; 10.2 µM (inactive) in assay [7]. The GI50 in [18] is 26.4 µM (inactive); in assay [8], 24.5 µM (inactive); in assay [9], 22.2 µM (inactive); in assay [10] it was 31.4 µM (inactive); in assay [11], 25.8 µM (inactive); in assay [12], 31.2 µM (inactive). For the same compound, the GI50 in [19] was 37.2 µM (inactive); in assay [13], 23.5 µM (inactive); in assay [14], 28.2 µM (inactive); in assay [15], 17.8 µM (inactive); in [16], 12.8 µM (inactive); in [17] it was 21.9 µM (inactive).
For the compound `COC1CC(=O)C2C(=O)N(c3ccccc3)C(=O)C23C(C(=O)c2ccccc2)=C(C)NC13O` (stereo unspecified), the GI50 is 23.3 µM (inactive) in assay [1]; 4.6 µM (inactive) in assay [2]; 13.5 µM (inactive) in [3]; < 0.01 µM (active) in assay [4]; 16.9 µM (inactive) in assay [5]; 22.2 µM (inactive) in assay [6]. Also, the GI50 is < 0.01 µM (active) in assay [7]; 18 µM (inactive) in assay [18]; 4.06 µM (inactive) in assay [8]; 17.1 µM (inactive) in assay [9]; 14.5 µM (inactive) in assay [10]; 18.7 µM (inactive) in assay [11]. The GI50 was 20.9 µM (inactive) in assay [12]; 10.4 µM (inactive) in [19]; 19.9 µM (inactive) in assay [14]; 2.92 µM (inactive) in assay [16]; 6.32 µM (inactive) in [17].
As for `CC(=O)OCCCCn1cnc2c(Cl)nc(Nc3ccccc3)nc21`, the GI50 in assay [1] was > 100 µM (inactive); in assay [2], 18.7 µM (inactive); in assay [3], > 100 µM (inactive); in [5], > 100 µM (inactive); in assay [6], > 100 µM (inactive); in assay [7], > 100 µM (inactive). Besides, the GI50 in [18], in [8], in assay [9], in [10], in assay [11] and in [12] was > 100 µM (inactive) throughout. Also, the GI50 in [19], in assay [15], in assay [16] and in assay [17] was > 100 µM (inactive) in each case.
On to `CNNC(=NS(=O)(=O)c1cc(C#N)c(NNC)cc1S)NNC`, for which the GI50 in assay [1], in [2], in [3], in assay [4], in [5] and in [6] was > 10 µM (inactive) in each case. Also, the GI50 in assay [7], in [18], in assay [8], in [11], in [12] and in assay [19] was > 10 µM (inactive) throughout. In addition, the GI50 in assay [13], in assay [14], in assay [15], in [16] and in assay [17] was > 10 µM (inactive) throughout.
